With `CCC[C@@H]1CC(=O)N([C@@H](CC)C(N)=O)C1` the solubility (mole fraction) (in MTBE, 278.15 K) was 0.00794, the solubility (mole fraction) (in MTBE, 283.15 K) was 0.0117 and the solubility (mole fraction) (in MTBE, 288.15 K) was 0.0181. It also gave a solubility (mole fraction) (in MTBE, 293.15 K) of 0.0331, a solubility (mole fraction) (in MTBE, 298.15 K) of 0.0496 and a solubility (mole fraction) (in MTBE, 303.15 K) of 0.078. For the same compound, the solubility (mole fraction) (in MTBE, 308.15 K) was 0.11, the solubility (mole fraction) (in MTBE, 313.15 K) was 0.175 and the solubility (mole fraction) (in MTBE, 318.15 K) was 0.291. For the same compound, the solubility (mole fraction) (in MTBE, 323.15 K) was 0.419, the solubility (mole fraction) (in diisopropyl ether, 278.15 K) was 0.00075 and the solubility (mole fraction) (in diisopropyl ether, 283.15 K) was 0.00108. It also gave a solubility (mole fraction) (in diisopropyl ether, 288.15 K) of 0.00235, a solubility (mole fraction) (in diisopropyl ether, 293.15 K) of 0.00327 and a solubility (mole fraction) (in diisopropyl ether, 298.15 K) of 0.00513. It also gave a solubility (mole fraction) (in diisopropyl ether, 303.15 K) of 0.00618, a solubility (mole fraction) (in diisopropyl ether, 308.15 K) of 0.00879 and a solubility (mole fraction) (in diisopropyl ether, 313.15 K) of 0.0143. The solubility (mole fraction) (in diisopropyl ether, 318.15 K) was 0.0205, the solubility (mole fraction) (in diisopropyl ether, 323.15 K) was 0.0341 and the solubility (mole fraction) (in ethanol, 278.15 K) was 0.189. For the same compound, the solubility (mole fraction) (in ethanol, 283.15 K) was 0.226, the solubility (mole fraction) (in ethanol, 288.15 K) was 0.258 and the solubility (mole fraction) (in ethanol, 293.15 K) was 0.297. For the same compound, the solubility (mole fraction) (in ethanol, 298.15 K) was 0.328, the solubility (mole fraction) (in ethanol, 303.15 K) was 0.371 and the solubility (mole fraction) (in ethanol, 308.15 K) was 0.415. The solubility (mole fraction) (in ethanol, 313.15 K) was 0.466, the solubility (mole fraction) (in ethanol, 318.15 K) was 0.523 and the solubility (mole fraction) (in ethanol, 323.15 K) was 0.576. It also gave a solubility (mole fraction) (in ethyl acetate, 278.15 K) of 0.0369, a solubility (mole fraction) (in ethyl acetate, 283.15 K) of 0.0541 and a solubility (mole fraction) (in ethyl acetate, 288.15 K) of 0.0769. The solubility (mole fraction) (in ethyl acetate, 293.15 K) was 0.113, the solubility (mole fraction) (in ethyl acetate, 298.15 K) was 0.152 and the solubility (mole fraction) (in ethyl acetate, 303.15 K) was 0.201. For the same compound, the solubility (mole fraction) (in ethyl acetate, 308.15 K) was 0.275, the solubility (mole fraction) (in ethyl acetate, 313.15 K) was 0.332 and the solubility (mole fraction) (in ethyl acetate, 318.15 K) was 0.418. It also gave a solubility (mole fraction) (in ethyl acetate, 323.15 K) of 0.499, a solubility (mole fraction) (in ethyl formate, 278.15 K) of 0.0887 and a solubility (mole fraction) (in ethyl formate, 283.15 K) of 0.113. The solubility (mole fraction) (in ethyl formate, 288.15 K) was 0.142, the solubility (mole fraction) (in ethyl formate, 293.15 K) was 0.18 and the solubility (mole fraction) (in ethyl formate, 298.15 K) was 0.224. For the same compound, the solubility (mole fraction) (in ethyl formate, 303.15 K) was 0.279, the solubility (mole fraction) (in ethyl formate, 308.15 K) was 0.33 and the solubility (mole fraction) (in ethyl formate, 313.15 K) was 0.393. The solubility (mole fraction) (in ethyl formate, 318.15 K) was 0.465, the solubility (mole fraction) (in ethyl formate, 323.15 K) was 0.519 and the solubility (mole fraction) (in isopropanol, 278.15 K) was 0.127. The solubility (mole fraction) (in isopropanol, 283.15 K) was 0.163, the solubility (mole fraction) (in isopropanol, 288.15 K) was 0.186 and the solubility (mole fraction) (in isopropanol, 293.15 K) was 0.219. For the same compound, the solubility (mole fraction) (in isopropanol, 298.15 K) was 0.25, the solubility (mole fraction) (in isopropanol, 303.15 K) was 0.287 and the solubility (mole fraction) (in isopropanol, 308.15 K) was 0.341. It also gave a solubility (mole fraction) (in isopropanol, 313.15 K) of 0.392, a solubility (mole fraction) (in isopropanol, 318.15 K) of 0.445 and a solubility (mole fraction) (in isopropanol, 323.15 K) of 0.51. The solubility (mole fraction) (in isopropyl acetate, 278.15 K) was 0.0322, the solubility (mole fraction) (in isopropyl acetate, 283.15 K) was 0.0429 and the solubility (mole fraction) (in isopropyl acetate, 288.15 K) was 0.0625. The solubility (mole fraction) (in isopropyl acetate, 293.15 K) was 0.0768, the solubility (mole fraction) (in isopropyl acetate, 298.15 K) was 0.109 and the solubility (mole fraction) (in isopropyl acetate, 303.15 K) was 0.154. The solubility (mole fraction) (in isopropyl acetate, 308.15 K) was 0.206, the solubility (mole fraction) (in isopropyl acetate, 313.15 K) was 0.287 and the solubility (mole fraction) (in isopropyl acetate, 318.15 K) was 0.365. The solubility (mole fraction) (in isopropyl acetate, 323.15 K) was 0.455, the solubility (mole fraction) (in methanol, 278.15 K) was 0.234 and the solubility (mole fraction) (in methanol, 283.15 K) was 0.275. The solubility (mole fraction) (in methanol, 288.15 K) was 0.309, the solubility (mole fraction) (in methanol, 293.15 K) was 0.337 and the solubility (mole fraction) (in methanol, 298.15 K) was 0.367. For the same compound, the solubility (mole fraction) (in methanol, 303.15 K) was 0.416, the solubility (mole fraction) (in methanol, 308.15 K) was 0.445 and the solubility (mole fraction) (in methanol, 313.15 K) was 0.497. The solubility (mole fraction) (in methanol, 318.15 K) was 0.557, the solubility (mole fraction) (in methanol, 323.15 K) was 0.61 and the solubility (mole fraction) (in n-butyl acetate, 278.15 K) was 0.0279. The solubility (mole fraction) (in n-butyl acetate, 283.15 K) was 0.0337, the solubility (mole fraction) (in n-butyl acetate, 288.15 K) was 0.0428 and the solubility (mole fraction) (in n-butyl acetate, 293.15 K) was 0.0577. For the same compound, the solubility (mole fraction) (in n-butyl acetate, 298.15 K) was 0.0846, the solubility (mole fraction) (in n-butyl acetate, 303.15 K) was 0.108 and the solubility (mole fraction) (in n-butyl acetate, 308.15 K) was 0.161. It also gave a solubility (mole fraction) (in n-butyl acetate, 313.15 K) of 0.21, a solubility (mole fraction) (in n-butyl acetate, 318.15 K) of 0.293 and a solubility (mole fraction) (in n-butyl acetate, 323.15 K) of 0.412. It also gave a solubility (mole fraction) (in n-heptane, 278.15 K) of 1.02e-05, a solubility (mole fraction) (in n-heptane, 283.15 K) of 1.86e-05 and a solubility (mole fraction) (in n-heptane, 288.15 K) of 3.36e-05. The solubility (mole fraction) (in n-heptane, 293.15 K) was 4.77e-05, the solubility (mole fraction) (in n-heptane, 298.15 K) was 8.17e-05 and the solubility (mole fraction) (in n-heptane, 303.15 K) was 0.000113. The solubility (mole fraction) (in n-heptane, 308.15 K) was 0.000168, the solubility (mole fraction) (in n-heptane, 313.15 K) was 0.000249 and the solubility (mole fraction) (in n-heptane, 318.15 K) was 0.000335. The solubility (mole fraction) (in n-heptane, 323.15 K) was 0.000493, the solubility (mole fraction) (in n-hexane, 278.15 K) was 4.1e-05 and the solubility (mole fraction) (in n-hexane, 283.15 K) was 6.64e-05. For the same compound, the solubility (mole fraction) (in n-hexane, 288.15 K) was 8.92e-05, the solubility (mole fraction) (in n-hexane, 293.15 K) was 0.000133 and the solubility (mole fraction) (in n-hexane, 298.15 K) was 0.00018. For the same compound, the solubility (mole fraction) (in n-hexane, 303.15 K) was 0.000239, the solubility (mole fraction) (in n-hexane, 308.15 K) was 0.000324 and the solubility (mole fraction) (in n-hexane, 313.15 K) was 0.000413. For the same compound, the solubility (mole fraction) (in n-hexane, 318.15 K) was 0.000524, the solubility (mole fraction) (in n-hexane, 323.15 K) was 0.000739 and the solubility (mole fraction) (in n-propanol, 278.15 K) was 0.137. For the same compound, the solubility (mole fraction) (in n-propanol, 283.15 K) was 0.17, the solubility (mole fraction) (in n-propanol, 288.15 K) was 0.204 and the solubility (mole fraction) (in n-propanol, 293.15 K) was 0.245. For the same compound, the solubility (mole fraction) (in n-propanol, 298.15 K) was 0.28, the solubility (mole fraction) (in n-propanol, 303.15 K) was 0.318 and the solubility (mole fraction) (in n-propanol, 308.15 K) was 0.365. It also gave a solubility (mole fraction) (in n-propanol, 313.15 K) of 0.412, a solubility (mole fraction) (in n-propanol, 318.15 K) of 0.475 and a solubility (mole fraction) (in n-propanol, 323.15 K) of 0.52.

Reference: BigSolDB 2.1
